Laboratory results taken from ChEMBL document CHEMBL1152457, “Antimicrobial drug resistance of Salmonella enterica serovar typhi in asia and molecular mechanism of reduced susceptibility to the fluoroquinolones” (2007).
Converted amounts (≈) assume the structure as drawn. The source made the active and inactive calls. The rule behind the calls is not given here.

Assays:
[1] = tested on: Salmonella enterica subsp. enterica; test: Antimicrobial activity against Salmonella enterica Serovar Typhi isolate C152 harboring DNA gyrase A S83Y mutation by disk diffusion method in presence of plasmid mediated quinolone-resistant gene qnrA and qnrS; type: functional, Salmonella enterica subsp. enterica serovar Typhi
[2] = tested on: Salmonella enterica subsp. enterica; test: Antimicrobial activity against multidrug-resistant Salmonella enterica Serovar Typhi isolate CT61 harboring DNA gyrase A S83F mutation by disk diffusion method in presence of plasmid mediated quinolone-resistant gene qnrA and qnrS; type: functional, Salmonella enterica subsp. enterica serovar Typhi
[3] = tested on: Salmonella enterica subsp. enterica; test: Antimicrobial activity against multidrug-resistant Salmonella enterica Serovar Typhi isolate nar 104 harboring DNA gyrase A S83F mutation by disk diffusion method in presence of plasmid mediated quinolone-resistant gene qnrA and qnrS; type: functional, Salmonella enterica subsp. enterica serovar Typhi
[4] = tested on: Salmonella enterica subsp. enterica; test: Antimicrobial activity against multidrug-resistant Salmonella enterica Serovar Typhi isolate nar 28 harboring DNA gyrase A S83F mutation by disk diffusion method; type: functional, Salmonella enterica subsp. enterica serovar Typhi
[5] = tested on: Salmonella enterica subsp. enterica; test: Antimicrobial activity against multidrug-resistant Salmonella enterica Serovar Typhi isolate nar 51 harboring DNA gyrase A S83F mutation by disk diffusion method; type: functional, Salmonella enterica subsp. enterica serovar Typhi
[6] = tested on: Salmonella enterica subsp. enterica; test: Antimicrobial activity against multidrug-resistant Salmonella enterica Serovar Typhi isolate ipt 33 harboring DNA gyrase A S83F mutation by disk diffusion method; type: functional, Salmonella enterica subsp. enterica serovar Typhi
[7] = tested on: Salmonella enterica subsp. enterica; test: Antimicrobial activity against multidrug-resistant Salmonella enterica Serovar Typhi isolate CT118 harboring DNA gyrase A S83F mutation by disk diffusion method in presence of plasmid mediated quinolone-resistant gene qnrA and qnrS; type: functional, Salmonella enterica subsp. enterica serovar Typhi
[8] = tested on: Salmonella enterica subsp. enterica; test: Antimicrobial activity against Salmonella enterica Serovar Typhi isolate CT144 harboring DNA gyrase A D87G mutation by disk diffusion method in presence of plasmid mediated quinolone-resistant gene qnrA and qnrS; type: functional, Salmonella enterica subsp. enterica serovar Typhi
[9] = tested on: Salmonella enterica subsp. enterica; test: Antimicrobial activity against multidrug-resistant Salmonella enterica Serovar Typhi isolate DT40 harboring DNA gyrase A S83F mutation by disk diffusion method; type: functional, Salmonella enterica subsp. enterica serovar Typhi
[10] = tested on: Salmonella enterica subsp. enterica; test: Antimicrobial activity against multidrug-resistant Salmonella enterica Serovar Typhi isolate DT47 harboring DNA gyrase A S83F mutation by disk diffusion method in presence of plasmid mediated quinolone-resistant gene qnrA and qnrS; type: functional, Salmonella enterica subsp. enterica serovar Typhi
[11] = tested on: Salmonella enterica subsp. enterica; test: Antimicrobial activity against multidrug-resistant Salmonella enterica Serovar Typhi isolate DT48 harboring DNA gyrase A S83F mutation by disk diffusion method; type: functional, Salmonella enterica subsp. enterica serovar Typhi
[12] = tested on: Salmonella enterica subsp. enterica; test: Antimicrobial activity against multidrug-resistant Salmonella enterica Serovar Typhi isolate DT60 harboring DNA gyrase A S83F mutation by disk diffusion method; type: functional, Salmonella enterica subsp. enterica serovar Typhi
[13] = tested on: Salmonella enterica subsp. enterica; test: Antimicrobial activity against multidrug-resistant Salmonella enterica Serovar Typhi isolate AG7 harboring DNA gyrase A S83F mutation by disk diffusion method; type: functional, Salmonella enterica subsp. enterica serovar Typhi
[14] = tested on: Salmonella enterica subsp. enterica; test: Antimicrobial activity against Salmonella enterica Serovar Typhi isolate AG169 harboring DNA gyrase A S83F mutation by disk diffusion method; type: functional, Salmonella enterica subsp. enterica serovar Typhi
[15] = tested on: Salmonella enterica subsp. enterica; test: Antimicrobial activity against multidrug-resistant Salmonella enterica Serovar Typhi isolate BL 3769 harboring DNA gyrase A S83F mutation by disk diffusion method in presence of plasmid mediated quinolone-resistant gene qnrA and qnrS; type: functional, Salmonella enterica subsp. enterica serovar Typhi
[16] = tested on: Salmonella enterica subsp. enterica; test: Antimicrobial activity against multidrug-resistant Salmonella enterica Serovar Typhi isolate DT18 harboring DNA gyrase A S83F and D87G mutation assessed as decrease in viable count at 8 times MIC after 4 hrs by time-kill analysis; type: functional, organism-based
[17] = tested on: Salmonella enterica subsp. enterica; test: Antimicrobial activity against multidrug-resistant Salmonella enterica Serovar Typhi isolate DT18 harboring DNA gyrase A S83F and D87G mutation assessed as decrease in viable count at 16 times MIC after 4 hrs by time-kill analysis; type: functional, organism-based
[18] = tested on: Salmonella enterica subsp. enterica; test: Antimicrobial activity against Salmonella enterica Serovar Typhi isolate CT76 harboring wild type DNA gyrase A assessed as decrease in bacterial population at 4 times MIC after 30 mins by time-kill analysis; type: functional, organism-based
[19] = tested on: Salmonella enterica subsp. enterica; test: Antimicrobial activity against multidrug-resistant Salmonella enterica Serovar Typhi isolate HTD 798 harboring DNA gyrase A S83F mutation assessed as decrease in bacterial population at 4 times MIC after 30 mins by time-kill analysis; type: functional, organism-based
[20] = tested on: Salmonella enterica subsp. enterica; test: Antimicrobial activity against Salmonella enterica Serovar Typhi isolate CT144 harboring DNA gyrase A D87G mutation assessed as decrease in bacterial population at 4 times MIC after 30 mins by time-kill analysis; type: functional, organism-based
[21] = tested on: Salmonella enterica subsp. enterica; test: Antimicrobial activity against Salmonella enterica Serovar Typhi isolate CT76 harboring wild type DNA gyrase A assessed as complete cell killing at 4 times MIC after 6 hrs by time-kill analysis; type: functional, organism-based
[22] = tested on: Salmonella enterica subsp. enterica; test: Antimicrobial activity against multidrug-resistant Salmonella enterica Serovar Typhi isolate HTD 798 harboring DNA gyrase A S83F mutation assessed as complete cell killing at 4 times MIC after 6 hrs by time-kill analysis; type: functional, organism-based
[23] = tested on: Salmonella enterica subsp. enterica; test: Antimicrobial activity against Salmonella enterica Serovar Typhi isolate CT144 harboring DNA gyrase A D87G mutation assessed as complete cell killing at 4 times MIC after 6 hrs by time-kill analysis; type: functional, organism-based
[24] = tested on: Salmonella enterica subsp. enterica; test: Antimicrobial activity against multidrug-resistant Salmonella enterica Serovar Typhi isolate HTD 798 harboring DNA gyrase A S83F mutation assessed as complete cell killing at 4 times MIC after 4 hrs by time-kill analysis; type: functional, organism-based
[25] = tested on: Salmonella enterica subsp. enterica; test: Antimicrobial activity against Salmonella enterica Serovar Typhi isolate CT144 harboring DNA gyrase A D87G mutation assessed as complete cell killing at 4 times MIC after 4 hrs by time-kill analysis; type: functional, organism-based
[26] = tested on: Salmonella enterica subsp. enterica; test: Antimicrobial activity against Salmonella enterica Serovar Typhi isolate CT76 harboring wild type DNA gyrase A by time-kill analysis; type: functional, organism-based
[27] = tested on: Salmonella enterica subsp. enterica; test: Antimicrobial activity against multidrug-resistant Salmonella enterica Serovar Typhi isolate HTD 798 harboring DNA gyrase A S83F mutation assessed as decrease in viable count at 4 times MIC after 4 hrs by time-kill analysis; type: functional, organism-based
[28] = tested on: Salmonella enterica subsp. enterica; test: Antimicrobial activity against Salmonella enterica Serovar Typhi isolate CT144 harboring DNA gyrase A D87G mutation assessed as decrease in viable count at 4 times MIC after 4 hrs by time-kill analysis; type: functional, organism-based
[29] = tested on: Salmonella enterica subsp. enterica; test: Antimicrobial activity against multidrug-resistant Salmonella enterica Serovar Typhi isolate DT18 harboring DNA gyrase A S83F and D87G mutation assessed as decrease in viable count at 4 times MIC after 4 hrs by time-kill analysis; type: functional, organism-based

Compound | MIC [1] [µg/mL] | MIC [2] [µg/mL] | MIC [3] [µg/mL] | MIC [4] [µg/mL] | MIC [5] [µg/mL] | MIC [6] [µg/mL] | MIC [7] [µg/mL] | MIC [8] [µg/mL] | MIC [9] [µg/mL] | MIC [10] [µg/mL] | MIC [11] [µg/mL] | MIC [12] [µg/mL] | MIC [13] [µg/mL] | MIC [14] [µg/mL] | MIC [15] [µg/mL] | also measured
O=C(O)c1cn(C2CC2)c2cc(N3CCNCC3)c(F)cc2c1=O [CIPROFLOXACIN] | 0.25 | 0.125 | 0.25 | 0.5 (≈ 1.51 µM) | 0.5 (≈ 1.51 µM) | 0.5 (≈ 1.51 µM) | 0.38 | 0.25 | 0.38 (≈ 1.15 µM) | 0.5 | 0.5 (≈ 1.51 µM) | 0.25 (≈ 0.754 µM) | 0.5 (≈ 1.51 µM) | 0.38 (≈ 1.15 µM) | 0.25 | 
COc1c(N2CCNC(C)C2)c(F)cc2c(=O)c(C(=O)O)cn(C3CC3)c12 (centres undefined) [GATIFLOXACIN] | 0.19 | 0.064 | 0.125 | 0.19 (≈ 0.506 µM) | 0.125 (≈ 0.333 µM) | 0.125 (≈ 0.333 µM) | 0.094 | 0.094 | 0.125 (≈ 0.333 µM) | 0.125 | 0.125 (≈ 0.333 µM) | 0.125 (≈ 0.333 µM) | 0.19 (≈ 0.506 µM) | 0.13 (≈ 0.346 µM) | 0.19 | Activity [16]: Active; Activity [17]: Active; Activity [18]: Active; Activity [19]: Active; Activity [20]: Active; Activity [21]: Active; Activity [22]: Active; Activity [23]: Active
CCn1cc(C(=O)O)c(=O)c2ccc(C)nc21 [NALIDIXIC ACID] | > 256 | 256 | 256 | 256 (≈ 1100 µM) | 256 (≈ 1100 µM) | 256 (≈ 1100 µM) | > 256 | > 256 | > 256 | 128 | > 256 | > 256 | > 256 | > 256 | > 256 | 
CC1COc2c(N3CCN(C)CC3)c(F)cc3c(=O)c(C(=O)O)cn1c23 (centres undefined) [OFLOXACIN] | 0.5 | 1 | 1 | 1 (≈ 2.77 µM) | 1 (≈ 2.77 µM) | 0.5 (≈ 1.38 µM) | 1 | 1 | 0.5 (≈ 1.38 µM) | 1 | 1 (≈ 2.77 µM) | 1 (≈ 2.77 µM) | 1.5 (≈ 4.15 µM) | 1 (≈ 2.77 µM) | 0.5 | Activity [24]: inactive; Activity [25]: inactive; Activity [26]: Active; Activity [27]: Active; Activity [28]: Active; Activity [29]: inactive
